Results on 17 molecules are retold here after patent US7288552B2, “Piperidine derivatives, process for preparation thereof, and pharmaceutical composition for alzheimer's disease containing the same” (STC NARA Co., Ltd., priority 2001, dated 2007).

Each structure is given as a SMILES string.

Series [1] has as its target T1, acetylcholinesterase (Type V-S: from electric eel) (Electrophorus electricus, UniProt O42275).
T1 construct: purchased Sigma Chemical Co., U.S.A. Type V-S
Description: Measurement of acetylcholinesterase activity (modified Ellman's method). As to conditions: 0.03 U enzyme, 37° C., 412 nm; read-out: AChE Inhibition (IC50). The class given is biochemical. The source says: Experiment for Measuring Acetylcholinesterase Inhibition Effect
The compounds used for measuring acetylcholinesterase (AChE) activity such as acetylcholinesterase (Type V-S: from electric eel), acetylcholine iodide, 5,5-dithio-bis(2-nitro benzoic acid), and neostigmine bromide, were products of Sigma Chemical Co., U.S.A., and high purity reagents were selected for other reagents.
3. Measurement of Acetylcholinesterase Activity
Modified Ellman's method for measuring enzyme activity was used to meet with the measurement of acetylcholinesterase activity. The enzyme was separated into certain amount, and kept under 80° C. below zero. The final concentration of the enzyme used in the experiment was 0.03 unit concentration. 1000 μM of […] dissolved in 0.1 M sodium phosphate buffer (pH 8.0) was used for substrate. As for dye reagent, 5,5-dithio-bis-(2-nitrobenzoic acid) (39.6 mg) and sodium bicarbonate(15 mg) dissolved in 10 mL sodium phosphate buffer (0.1M, pH 7.0) was used.
The procedure for the enzyme reaction was as follows. After adding 200 μl DTNB and 100 μl enzyme (0.03 U) to 2 mL sodium phosphate buffer (pH 8.0), the resulting mixture was pre-heated at 37° C. for 10 minutes. To the resulting mixture 200 μl substrate was added, and allowed to react for 3 minutes. The spectrometer of finished reaction was measured at 412 nm wave. IC50 value connected to activity inhibition was measured by quantal-dose response.

The target of the next series is T2, β-amyloid (1-42) (Homo sapiens, UniProt P05067).
T2 construct: β-amyloid (1-42) was a product of American Peptide Co., U.S.A; purchased American Peptide Co., U.S.A
T2 sequence (P05067 672-713 limits assumed): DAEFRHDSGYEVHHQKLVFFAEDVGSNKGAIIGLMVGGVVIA
The experiment in a line: Inhibition of β-amyloid (1-42) aggregation (thioflavin T fluorescence). The class given is biochemical. As to conditions: 5 μM β-amyloid 1-42, 37° C., 26 hours. The source says: Experiment for Measuring Inhibition of β-amyloid Aggregation
As the materials used for measuring β-amyloid aggregation, β-amyloid (1-42) was a product of American Peptide Co., U.S.A.; and thioflavin T, phosphate buffered saline tablets, and dimethyl sulfoxide (DMSO, 99.5%) were products of Sigma Chemical Co., U.S.A., and high purity reagents were selected for other reagents.
3. Experiment for Measuring Inhibition of β-amyloid (1-42) Aggregation
Fluorescent analysis was used in measuring β-amyloid aggregation. This peptide compound was kept in the deep freezer (−80° C.), and the final concentration used in the mesurement was 5 μM. Compounds that need to be analyzed were dissolved in 99.5% DMSO, and fluorescent substance was prepared by dissolving thioflavin T (5 μM) in 0.01 M sodium phosphate buffer.
The procedure for aggregation reaction was as follows. To 0.01 M sodium phosphate buffer (92.5 μl) was added fixed concentration of a compound, for measuring purpose, (5 μl) and 5 μM β-amyloid 1-42 (2.5 μl). The resulting mixture was kept at 37° C. for 26 hours to aggregate. 5 μM tioflavin T (2000 μl) was added thereto, and then fluorescent strength was measured with fluorescent spectrometer.

The next series relates to ICR mice. The experiment in a line: Acute toxicity test on animals. The note with it: 50 mg/kg to 500 mg/kg intraperitoneal, single injection, observed for 10 days. Type of series: in vivo. The protocol: In order for a compound to be comprised in the pharmaceutical composition for treating Alzheimer's disease, it must be nontoxic. […] This test followed the protocol of Korea Food & Drug Administration. […] The compounds used for the test were diluted with wheat germ oil.

The subject of series [2] is patients with Alzheimer's disease. The note with it: cited from earlier work.

T1 sequence (O42275 24-633): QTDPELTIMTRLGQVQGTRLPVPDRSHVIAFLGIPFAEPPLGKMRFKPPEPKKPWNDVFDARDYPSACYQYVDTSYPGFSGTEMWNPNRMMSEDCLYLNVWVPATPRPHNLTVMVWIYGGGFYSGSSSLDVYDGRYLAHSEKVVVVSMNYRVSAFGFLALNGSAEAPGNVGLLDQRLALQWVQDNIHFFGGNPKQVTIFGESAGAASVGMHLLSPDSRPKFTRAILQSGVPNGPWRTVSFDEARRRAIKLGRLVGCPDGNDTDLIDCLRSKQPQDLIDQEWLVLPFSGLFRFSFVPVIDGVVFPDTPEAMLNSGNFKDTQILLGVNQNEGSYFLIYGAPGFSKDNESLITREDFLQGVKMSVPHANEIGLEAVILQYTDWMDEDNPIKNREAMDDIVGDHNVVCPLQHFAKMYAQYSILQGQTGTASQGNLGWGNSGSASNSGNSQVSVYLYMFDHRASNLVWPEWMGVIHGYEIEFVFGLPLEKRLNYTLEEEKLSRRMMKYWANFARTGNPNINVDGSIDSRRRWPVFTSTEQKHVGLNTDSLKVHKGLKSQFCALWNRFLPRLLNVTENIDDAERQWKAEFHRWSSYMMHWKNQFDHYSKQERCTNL

With `O=C(OCCCCN1CCC(OCc2ccccc2)CC1)c1ccc(F)cc1` [Example 14, 4-[4-(benzyloxy)piperidino]butyl 4-fluorobenzoate], in series [1], the IC50 was above 100 µM.
On to `O=C(OCCCCN1CCC(OCc2ccccc2)CC1)c1ccc(Cl)cc1` [Example 13, 4-[4-(benzyloxy)piperidino]butyl 4-chlorobenzoate], for which the IC50 in series [1] is above 100 µM.
Same read-out and setting: the result for `O=C(OCCCCN1CCC(OCc2ccccc2)CC1)c1ccc([N+](=O)[O-])cc1` [Example 12, 4-[4-(benzyloxy)piperidino]butyl 4-nitrobenzoate] reads above 100 µM.
`O=C(OCCCCN1CCC(OC(c2ccccc2)c2ccccc2)CC1)c1ccccc1` [Example 4, 4-[4-(benzhydryloxy)piperidino]butyl benzoate]: the IC50 in series [1] was determined as 1.3 µM; on β-amyloid (1-42), 40.3 µM.
`O=C(OCCCCN1CCC(OC(c2ccccc2)c2ccccc2)CC1)c1ccc(Cl)cc1` [Example 2, 4-[4-(benzhydryloxy)piperidino]butyl-4-chlorobenzoate]: the death rate entry in the series with ICR mice is “no death”. The values for the IC50 (in series [1]; at β-amyloid (1-42)) were 0.3 µM and 28.2 µM, respectively.
In the case of `CC(C)(C)c1ccc(C(=O)OCCCCN2CCC(OCc3ccccc3)CC2)cc1` [Example 17, 4-[4-(benzyloxy)piperidino]butyl 4-(tert-butyl)benzoate], the IC50 in series [1] turned out to be 12.2 µM.
On to `O=C(OCCCCN1CCC(OC(c2ccccc2)c2ccccc2)CC1)c1ccc([N+](=O)[O-])cc1` [Example 1, 4-[4-(benzhydryloxy)piperidino]butyl-4-nitrobenzoate], for which the IC50 in series [1] came to 7.2 µM; at β-amyloid (1-42), 53.1 µM.
With `Nc1c2c(nc3ccccc13)CCCC2` [Tarcrine], the “share of patients with Alzheimer's disease in whom efficacious” value in series [2] is recorded as “about 25%”.
As for `O=C(OCCCCN1CCC(OC(c2ccccc2)c2ccccc2)CC1)c1cccc(F)c1` [Example 8, 4-[4-(benzhydryloxy)piperidino]butyl 3-fluorobenzoate], the IC50 in series [1] was 70.7 µM; at β-amyloid (1-42), 33.7 µM.
On to `O=C(OCCCCN1CCC(OCc2ccccc2)CC1)c1cccc(Cl)c1` [Example 18, 4-[4-(benzyloxy)piperidino]butyl 3-chlorobenzoate], for which the IC50 in series [1] was above 100 µM.
As to `CC(C)(C)c1ccc(C(=O)OCCCCN2CCC(OC(c3ccccc3)c3ccccc3)CC2)cc1` [Example 6, 4-[4-(benzhydryloxy)piperidino]butyl 4-(tert-butyl)benzoate], in the series on ICR mice, the death rate result was “no death”.
Consider `O=C(OCCCCN1CCC(OCc2ccccc2)CC1)c1ccccc1` [Example 15, 4-[4-(benzyloxy)piperidino]butyl benzoate], for which the IC50 in series [1] was above 100 µM.
Turning to `O=C(OCCCCN1CCC(OC(c2ccccc2)c2ccccc2)CC1)c1cccnc1` [Example 11, 4-[4-(benzhydryloxy)piperidino]butyl nitcotinate], the IC50 is above 150 µM in series [1] and 61.2 µM at β-amyloid (1-42).
On to `O=C(OCCCCN1CCC(OCc2ccccc2)CC1)c1cccc(F)c1` [Example 19, 4-[4-(benzyloxy)piperidino]butyl 3-fluorobenzoate], for which, in series [1], the IC50 is above 100 µM.
For the molecule `O=C(OCCCCN1CCC(OC(c2ccccc2)c2ccccc2)CC1)c1ccc(F)cc1` [Example 3, 4-[4-(benzhydryloxy)piperidino]butyl 4-fluorobenzoate], the results for the IC50 (in series [1]; on β-amyloid (1-42)) were 0.84 µM and 36.3 µM, respectively.
The like results for `O=C(Nc1ccc(F)cc1)OCCCCN1CCC(OC(c2ccccc2)c2ccccc2)CC1` [Example 10, 4-[4-(benzhydryloxy)piperidino]butyl N-(4-fluorophenyl)carbamate] were, in that order, 2.45 µM and 114 µM.
For `CC(C)c1ccc(C(=O)OCCCCN2CCC(OCc3ccccc3)CC2)cc1` [Example 16, 4-[4-(benzyloxy)piperidino]butyl 4-isopropylbenzoate], in series [1], the IC50 turned out to be 14.8 µM.
